Results on eleven molecules are retold here after patent publication US4239903A, “2-Aminotetralin derivatives and process for producing the same” (priority 1977, dated 1980).

Counter-ions that a name gives are not always drawn. Like-named read-outs stand apart in the source and are kept apart here.

In data set [1] the test system is colonic contraction caused by stimulation of pelvic nerve. Nature of the data set: Effect on colonic contraction caused by stimulation of pelvic nerve in anesthetized dogs. It counts as in vivo, dog (mongrel dogs of both sexes). The following applies: Canis lupus familiaris, iv; for inhibition in vivo at 0.1 mg/kg: read-out: % Inhibition of Colonic Contraction; for ED50: read-out: c.ID50 (dose causing 50% inhibition of the colonic contraction by pelvic nerve stimulation). The source says: The compounds of the present invention are extremely useful as medicines particularly acting on the lower digestive tract. […] N-Ethyl-N-[4-(3,4-dimethoxybenzoyloxy)butyl]-3-(4-methoxyphenyl)-2-propylamine hydrochloride (hereinafter referred to as "mebeverine") known as an antispasmodic for the lower digestive tract was used as a reference.
The values shown in Table 1 were obtained according to the following method [as disclosed in European Journal of Pharmacology, 18, pp. 1-14 (1972)].
Mongrel dogs of both sexes weighing 8-15 kg were used.
After intravenous anesthesizing with pentobarbital in a dose of 30 mg/kg, the animals were fixed on their back and subjected to ventrotomy along the midline of the lower abdomen. After a rubber balloon filled with water was inserted into the descending colon via the anus, 100 μg/kg of each compound was injected intravenously and changes in the internal pressure of the balloon were recorded on a polygraph through a low pressure transducer. Electric stimulation (rectangular wave, 50 cps in frequency, 1 msec in duration, 4 V in voltage) was applied to the pelvic nerve for 5 seconds every three minutes. The percent inhibition of the colonic contraction was calculated according to the following relationship. [formula]
c.ID50 values were determined by the same method as was used for Table 1.

A short description of data set [2]: Acute toxicity (LD50) in rats. Particulars: rat, in vivo.
Data set [3] can be described thus: Effect on colonic motility stimulated by neostigmine in rats. The class given is in vivo, rat (male STD Wistar strain). Particulars: rat, in vivo.
In data set [4] the test system is colonic motility stimulated by neostigmine. Described as above. The class given is in vivo, rat (male STD Wistar strain). Particulars: Rattus norvegicus, neostigmine-stimulated, dose at which inhibition was observed in 50% of rats.
Data set [5] relates to contractile response of the stomach to vagal stimulation. Nature of the data set: Contractile response of the stomach to vagal stimulation in anesthetized dogs. It counts as in vivo, dog (mongrel dogs of both sexes). The following applies: for ED50: Canis lupus familiaris, iv, read-out: s.ID50 (dose causing 50% inhibition of the contractile response of the stomach to vagal stimulation); for s.ID50 /c.ID50 (selectivity of antispasmodic effect): i.v., stomach vs colon. The source says: The compounds of the present invention are further characterized by the following property. The compounds of the present invention have selectively stronger antispasmodic effect on the lower part of the digestive tract than on the upper part of the digestive tract, in contrast to conventional anticholinergic antispasmodics which act non-selectively on the digestive tract. The evidence for this selectivity is exemplified by the results shown for representative compounds of the present invention in Table 3. In Table 3, the s.ID50 and c.ID50 values represent the doses causing 50% inhibition of the contractile response of the stomach to vagal stimulation and 50% inhibition of the colonic contraction by pelvic nerve stimulation, respectively, in dogs. These values and their ratios (s.ID50 /c.ID50) indicate that these compounds have higher selectivity than mebeverine, as is clear from Table 3.
The determination of gastric motility was carried out according to the method described in European Journal of Pharmacology, 18, pp. 1-14 (1972).
More specifically mongrel dogs of both sexes weighing 8-15 kg were used. After anesthesizing the animals with 30 mg/kg (i.v.) of pentobarbital, the animals were fixed on their back and a midline incision was made in the upper abdomen. A rubber balloon filled with water was inserted into the stomach through an incision in the greater curvature. Changes in internal pressure of the balloon were recorded on a polygraph via a low pressure transducer. Electric stimulation (rectangular wave, 20 cps in frequency, 1 msec in duration, 8 V in voltage) was applied to the vagus nerve for 10 seconds every three minutes. The percent inhibition of the contractile response of the stomach was calculated from the relationship shown above.

Setting [6] is: 100 μg/kg, i.v., pelvic nerve stimulation, anesthetized dogs.

As for `CCN(CCCCOC(=O)c1ccc(OC)c(OC)c1)C1CCc2ccccc2C1` (stereo not drawn) [Compound A, N-Ethyl-N-[4-(3,4-dimethoxybenzoyloxy)butyl]-1,2,3,4-tetrahydro-2-naphthylamine hydrochloride], the inhibition in vivo at 0.1 mg/kg in data set [1] (setting [6]) worked out at 27.9%.
As for `CCN(CCCCCCOC(=O)c1ccc(OC)c(OC)c1)C1CCc2ccccc2C1.Cl` (stereo not drawn) [Compound B, N-Ethyl-N-[6-(3,4-dimethoxybenzoyloxy)hexyl]-1,2,3,4-tetrahydro-2-naphthylamine hydrochloride], the inhibition in vivo at 0.1 mg/kg in data set [1] (setting [6]) stood at 56%. Besides, the LD50 in data set [2] (iv) is 17.7 mg/kg; in data set [2] (po), above 2000 mg/kg. In addition, the safety margin (LD50/ED50) is 206 in data set [3] (iv) and above 364 in data set [3] (po). Further, the ED50 turned out to be 0.086 mg/kg in data set [4] (iv) and 5.5 mg/kg in data set [4] (po).
For `CCN(CCCCOC(=O)c1ccc(OC)c(OC)c1)C1CCc2cc(OC)ccc2C1.Cl` (stereo not drawn) [Compound C, N-Ethyl-N-[4-(3,4-dimethoxybenzoyloxy)butyl]-6-methoxy-1,2,3,4-tetrahydro-2-naphthylamine hydrochloride], in data set [1] (setting [6]), the inhibition in vivo at 0.1 mg/kg turned out to be 20%. Besides, the figures for the LD50 in data set [2] (iv) and in data set [2] (po) were 19.3 mg/kg and above 2000 mg/kg, respectively. Also, the safety margin (LD50/ED50) is 114 in data set [3] (iv) and above 139 in data set [3] (po). Moreover, the ED50 in data set [4] (iv) came out at 0.169 mg/kg; in data set [4] (po) it was 14.4 mg/kg.
Consider `CCN(CCCCCCOC(=O)c1ccc(OC)c(OC)c1)C1CCc2cc(OC)ccc2C1.Cl` (stereo not drawn) [Compound D, N-Ethyl-N-[6-(3,4-dimethoxybenzoyloxy)hexyl]-6-methoxy-1,2,3,4-tetrahydro-2-naphthylamine hydrochloride], for which the ED50 turned out to be 0.083 mg/kg in data set [1] (dogs), 0.046 mg/kg in data set [4] (iv), 5.5 mg/kg in data set [4] (po) and 0.614 mg/kg in data set [5] (dogs). Besides, the inhibition in vivo at 0.1 mg/kg in data set [1] (setting [6]) was found to be 54.7%. For the same molecule, the LD50 was 35.3 mg/kg in data set [2] (iv) and 2830 mg/kg in data set [2] (po). In addition, the values for the safety margin (LD50/ED50) in data set [3] (iv) and in data set [3] (po) were 767 and 515, respectively. Besides, the “s.ID50 /c.ID50 (selectivity of antispasmodic effect)” value in data set [5] (dogs) was determined as 7.40.
`CCCN(CCCCOC(=O)c1ccc(OC)c(OC)c1)C1CCc2cc(OC)ccc2C1.Cl` (stereo not drawn) [Compound E, N-Propyl-N-[4-(3,4-dimethoxybenzoyloxy)butyl]-6-methoxy-1,2,3,4-tetrahydro-2-naphthylamine hydrochloride]: in data set [1] (setting [6]), the inhibition in vivo at 0.1 mg/kg is 22.4%. For the same molecule, the LD50 in data set [2] (iv) was determined as 22.3 mg/kg; in data set [2] (po), 707 mg/kg. Further, the safety margin (LD50/ED50) in data set [3] (iv) came to 129; in data set [3] (po), 41. Further, the ED50 amounted to 0.173 mg/kg in data set [4] (iv) and 17.3 mg/kg in data set [4] (po).
For the molecule `CCN(CCCCOC(=O)c1ccc(OC)c(OC)c1)C1CCc2cc(OC)c(OC)cc2C1.Cl` (stereo not drawn) [Compound F, N-Ethyl-N-[4-(3,4-dimethoxybenzoyloxy)butyl]-6,7-dimethoxy-1,2,3,4-tetrahydro-2-naphthylamine hydrochloride], the ED50 in data set [1] (dogs) came out at 0.057 mg/kg; in data set [4] (iv), 0.025 mg/kg; in data set [4] (po) it was 5.5 mg/kg; in data set [5] (dogs), 0.266 mg/kg. In data set [1] (setting [6]), the inhibition in vivo at 0.1 mg/kg is 63.8%. The LD50 in data set [2] (iv) came out at 16.2 mg/kg; in data set [2] (po), 1540 mg/kg. For the same molecule, the figures for the safety margin (LD50/ED50) in data set [3] (iv) and in data set [3] (po) were 648 and 280, respectively. For the same molecule, the “s.ID50 /c.ID50 (selectivity of antispasmodic effect)” value in data set [5] (dogs) turned out to be 4.67.
In the case of `CCN(CCCCCCOC(=O)c1ccc(OC)c(OC)c1)C1CCc2cc(OC)c(OC)cc2C1.Cl` (stereo not drawn) [Compound G, N-Ethyl-N-[6-(3,4-dimethoxybenzoyloxy)hexyl]-6,7-dimethoxy-1,2,3,4-tetrahydro-2-naphthylamine hydrochloride], the inhibition in vivo at 0.1 mg/kg in data set [1] (setting [6]) amounted to 54.2%. Further, the LD50 in data set [2] (iv) stood at 17.5 mg/kg; in data set [2] (po) it was 561 mg/kg. Further, the figures for the safety margin (LD50/ED50) in data set [3] (iv) and in data set [3] (po) were 885 and 330, respectively. Moreover, the results for the ED50 in data set [4] (iv) and in data set [4] (po) were 0.02 mg/kg and 1.7 mg/kg, respectively.
In the case of `CCN(CCCCOC(=O)c1ccc(OC)c(OC)c1)C1CCc2ccc(OC)cc2C1` (stereo not drawn) [Compound H, N-Ethyl-N-[4-(3,4-dimethoxybenzoyloxy)butyl]-7-methoxy-1,2,3,4-tetrahydro-2-naphthylamine hydrochloride], the inhibition in vivo at 0.1 mg/kg in data set [1] (setting [6]) stood at 30.9%.
`CCN(CCCCOC(=O)c1ccc(OC)c(OC)c1)C1CCc2cccc(OC)c2C1` (stereo not drawn) [Compound K, N-Ethyl-N-[4-(3,4-dimethoxybenzoyloxy)butyl]-8-methoxy-1,2,3,4-tetrahydro-2-naphthylamine hydrochloride]: the inhibition in vivo at 0.1 mg/kg in data set [1] (setting [6]) worked out at 40%.
Consider `COc1ccc2c(c1)CCC(N(CCCCOC(=O)c1ccc(OC)c(OC)c1)C(C)C)C2.Cl` (stereo not drawn) [Compound L, N-Isopropyl-N-[4-(3,4-dimethoxybenzoyloxy)butyl]-6-methoxy-1,2,3,4-tetrahydro-2-naphthylamine hydrochloride], for which, in data set [2] (po), the LD50 turned out to be 1540 mg/kg. The molecule also yielded a safety margin (LD50/ED50) in data set [3] (po) of 89. Further, the ED50 came out at 0.173 mg/kg in data set [4] (iv) and 17.3 mg/kg in data set [4] (po).
For the molecule `CCN(CCCCOC(=O)c1ccc(OC)c(OC)c1)C(C)Cc1ccc(OC)cc1.Cl` (stereo not drawn) [Mebeverine, N-Ethyl-N-[4-(3,4-dimethoxybenzoyloxy)butyl]-3-(4-methoxyphenyl)-2-propylamine hydrochloride, reference compound], the inhibition in vivo at 0.1 mg/kg in data set [1] stood at 22%. Moreover, the ED50 in data set [1] was above 0.3 mg/kg; in data set [4] (iv), 0.151 mg/kg; in data set [4] (po), 30 mg/kg; in data set [5], 0.823 mg/kg. Further, the LD50 was 17.7 mg/kg in data set [2] (iv) and 1540 mg/kg in data set [2] (po). Further, the “s.ID50 /c.ID50 (selectivity of antispasmodic effect)” value in data set [5] (dogs) is recorded as below 2.74.

A word on the LD50: it is the dose at which mortality reaches 50%. A low value points to greater toxicity.
